From patent US9539260B2, “Dihydro-benzo-oxazine and dihydro-pyrido-oxazine derivatives” (Novartis AG, priority 2012, dated 2017)

Assays:
PI3K alpha = PI3K alpha (Homo sapiens (Human), UniProt P42336); assay: Enzymatic PI3K alpha isoform inhibition (lipid kinase activity, Kinase-Glo luminescence); type: biochemical; conditions: Enzymatic assay
Description: (§1) 1.1 Test of Lipid Kinase Activity […]
(§2) In a more preferred assay, the kinase reaction is performed in a final volume of 10 μl per well of a low volume non-binding CORNING, 384 well black plate (Cat. No. #3676). The final concentrations of ATP and phosphatidyl inositol (PI) in the assay are 1 μM and 10 μg/mL, respectively. The reaction is started by the addition of ATP.
(§3) The components of the assay are added per well as follows:
(§4) The Z′ value is a universal measurement of the robustness of an assay. A Z′ between 0.5 and 1.0 is considered an excellent assay.
(§5) IC50 is determined by a four parameter curve fitting routine that comes along with “excel fit”. A four parameter logistic equation is used to calculate IC50 values (IDBS XLfit) of the percentage inhibition of each compound at 8 concentrations (usually 10, 3.0, 1.0, 0.3, 0.1, 0.030, 0.010 and 0.003 μM). Alternatively, IC50 values are calculated using idbsXLfit model 204, which is a 4 parameter logistic model.
(§6) Yet alternatively, for an ATP depletion assay, compounds of the formula I to be tested are dissolved in DMSO and directly distributed into a white 384-well plate at 0.5 μl per well. To start the reaction, 10 μl of 10 nM PI3 kinase and 5 μg/mL 1-alpha-phosphatidylinositol (PI) are added into each well followed by 10 μl of 2 μM ATP. The reaction is performed until approx 50% of the ATP is depleted, and then stopped by the addition of 20 μl of Kinase-Glo solution (Promega Corp., Madison, Wis., USA). The stopped reaction is incubated for 5 minutes and the remaining ATP is then detected via luminescence. IC50 values are then determined.

PI3K delta = PI3K delta (Homo sapiens (Human), UniProt O00329); assay: Enzymatic PI3K delta isoform inhibition (lipid kinase activity, Kinase-Glo luminescence); type: biochemical; conditions: Enzymatic assay
Sequence of PI3K delta (O00329 other isoform, or with tags, fused parts or gaps linker GGGGGG): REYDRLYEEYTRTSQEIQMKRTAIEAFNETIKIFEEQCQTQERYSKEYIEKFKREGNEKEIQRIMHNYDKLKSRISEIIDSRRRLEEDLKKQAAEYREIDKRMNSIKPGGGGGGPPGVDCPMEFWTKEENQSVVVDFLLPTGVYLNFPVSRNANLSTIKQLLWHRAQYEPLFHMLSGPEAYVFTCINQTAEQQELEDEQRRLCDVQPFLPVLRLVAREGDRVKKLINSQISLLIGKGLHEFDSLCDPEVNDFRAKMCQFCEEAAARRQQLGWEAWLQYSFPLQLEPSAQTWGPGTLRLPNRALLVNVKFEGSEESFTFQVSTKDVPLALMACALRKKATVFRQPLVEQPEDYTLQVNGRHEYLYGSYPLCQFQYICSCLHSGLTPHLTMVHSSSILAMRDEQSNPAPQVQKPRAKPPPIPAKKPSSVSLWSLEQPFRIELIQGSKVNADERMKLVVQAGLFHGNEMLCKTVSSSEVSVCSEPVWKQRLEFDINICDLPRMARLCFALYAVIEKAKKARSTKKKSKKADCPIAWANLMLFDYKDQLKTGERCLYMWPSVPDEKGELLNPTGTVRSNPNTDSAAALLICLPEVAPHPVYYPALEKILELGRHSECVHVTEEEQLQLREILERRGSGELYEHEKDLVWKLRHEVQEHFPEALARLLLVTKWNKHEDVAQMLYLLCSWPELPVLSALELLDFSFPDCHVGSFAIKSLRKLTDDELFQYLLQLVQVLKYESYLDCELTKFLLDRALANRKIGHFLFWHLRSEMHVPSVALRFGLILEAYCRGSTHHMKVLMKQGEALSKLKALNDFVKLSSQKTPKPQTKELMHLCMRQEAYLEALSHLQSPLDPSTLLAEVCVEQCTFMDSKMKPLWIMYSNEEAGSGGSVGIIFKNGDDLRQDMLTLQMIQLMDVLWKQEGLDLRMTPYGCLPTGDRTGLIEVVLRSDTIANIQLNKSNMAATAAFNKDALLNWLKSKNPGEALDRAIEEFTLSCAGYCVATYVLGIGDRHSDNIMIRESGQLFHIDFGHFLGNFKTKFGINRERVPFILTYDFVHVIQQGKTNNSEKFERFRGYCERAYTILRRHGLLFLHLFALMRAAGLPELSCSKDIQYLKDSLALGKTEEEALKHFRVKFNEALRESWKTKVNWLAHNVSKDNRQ
Description: as §1, §2, §3, §4, §5, §6

Sequence of PI3K alpha (P42336 other isoform, or with tags, fused parts or gaps): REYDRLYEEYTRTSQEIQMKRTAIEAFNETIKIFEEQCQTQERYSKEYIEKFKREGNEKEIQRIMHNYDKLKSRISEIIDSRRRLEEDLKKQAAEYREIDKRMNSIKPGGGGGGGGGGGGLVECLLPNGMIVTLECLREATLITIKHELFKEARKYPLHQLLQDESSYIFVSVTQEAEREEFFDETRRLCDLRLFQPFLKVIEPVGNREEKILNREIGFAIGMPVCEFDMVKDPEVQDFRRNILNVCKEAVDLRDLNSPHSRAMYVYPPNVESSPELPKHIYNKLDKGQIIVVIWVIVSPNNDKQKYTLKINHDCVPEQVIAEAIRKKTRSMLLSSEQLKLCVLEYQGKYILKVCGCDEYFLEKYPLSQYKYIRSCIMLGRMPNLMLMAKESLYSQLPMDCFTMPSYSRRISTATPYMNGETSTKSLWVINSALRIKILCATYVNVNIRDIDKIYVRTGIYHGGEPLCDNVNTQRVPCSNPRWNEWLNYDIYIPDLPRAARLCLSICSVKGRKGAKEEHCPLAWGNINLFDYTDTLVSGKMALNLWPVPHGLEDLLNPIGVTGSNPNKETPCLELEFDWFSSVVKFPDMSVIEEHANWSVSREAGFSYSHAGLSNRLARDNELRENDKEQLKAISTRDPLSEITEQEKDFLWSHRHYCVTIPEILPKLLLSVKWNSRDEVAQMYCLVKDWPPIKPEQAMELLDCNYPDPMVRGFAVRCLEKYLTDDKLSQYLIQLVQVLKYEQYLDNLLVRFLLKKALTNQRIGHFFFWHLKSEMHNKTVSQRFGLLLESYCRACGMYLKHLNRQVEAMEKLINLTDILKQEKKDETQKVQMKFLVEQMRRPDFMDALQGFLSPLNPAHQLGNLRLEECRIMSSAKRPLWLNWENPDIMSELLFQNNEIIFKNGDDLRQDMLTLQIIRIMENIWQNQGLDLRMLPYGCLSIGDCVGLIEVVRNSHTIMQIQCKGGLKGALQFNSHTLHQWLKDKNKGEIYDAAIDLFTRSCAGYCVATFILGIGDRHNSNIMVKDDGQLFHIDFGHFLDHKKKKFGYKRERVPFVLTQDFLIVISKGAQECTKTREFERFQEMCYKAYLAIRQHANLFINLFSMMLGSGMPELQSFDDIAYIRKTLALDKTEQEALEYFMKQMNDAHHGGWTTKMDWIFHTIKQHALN

| IC50 (PI3K alpha) [nM] | IC50 (PI3K delta) [nM] | Structure (SMILES) |
| --- | --- | --- |
| 94 | < 3 | COc1ncc(N2CCOc3ccc(O[C@H]4CCN(C(=O)c5cnco5)C4)cc32)cc1Cl [Example B108, {(S)-3-[4-(5-Chloro-6-methoxy-pyridin-3-yl)-3,4-dihydro-2H-benzo[1,4]oxazin-6-yloxy]-pyrrolidin-1-yl}-oxazol-5-yl-methanone] |
| 369 | 36 | COCC(=O)N1CC[C@H](Oc2ccc3c(c2)N(c2cnc(S(C)(=O)=O)c(C)c2)CCO3)C1 [Example B32, 1-{(S)-3-[4-(6-Methanesulfonyl-5-methyl-pyridin-3-yl)-3,4-dihydro-2H-benzo[1,4]oxazin-6-yloxy]-pyrrolidin-1-yl}-2-methoxy-ethanone] |
| 339 | 47 | COc1ncc(N2CCOc3ccc(O[C@H]4CCN(C(=O)c5cnn(C)c5)C4)cc32)cc1C [Example B20, {(S)-3-[4-(6-Methoxy-5-methyl-pyridin-3-yl)-3,4-dihydro-2H-benzo[1,4]oxazin-6-yloxy]-pyrrolidin-1-yl}-(1-methyl-1H-pyrazol-4-yl)-methanone] |
| 421 | 25 | COc1cc(N2CCOc3ccc(O[C@H]4CCN(C(=O)C5CCS(=O)(=O)C5)C4)cc32)cnc1OC (stereo partly drawn) [Example B41, {(S)-3-[4-(5,6-Dimethoxy-pyridin-3-yl)-3,4-dihydro-2H-benzo[1,4]oxazin-6-yloxy]-pyrrolidin-1-yl}-(1,1-dioxo-tetrahydro-1lambda*6*-thiophen-3-yl)-methanone] |
| 471 | 15 | COc1ncc(N2CCOc3ccc(O[C@H]4CCN(C(=O)C5CCS(=O)(=O)C5)C4)cc32)cc1F (stereo partly drawn) [Example B101, (1,1-Dioxo-tetrahydro-1lambda*6*-thiophen-3-yl)-{(S)-3-[4-(5-fluoro-6-methoxy-pyridin-3-yl)-3,4-dihydro-2H-benzo[1,4]oxazin-6-yloxy]-pyrrolidin-1-yl}-methanone] |
| 241 | 10.7 | COc1cc(N2CCOc3ccc(O[C@H]4CCN(C(=O)C5CCS(=O)(=O)CC5)C4)cc32)cnc1OC [Example B47, {(S)-3-[4-(5,6-Dimethoxy-pyridin-3-yl)-3,4-dihydro-2H-benzo[1,4]oxazin-6-yloxy]-pyrrolidin-1-yl}-(1,1-dioxo-hexahydro-1lambda*6*-thiopyran-4-yl)-methanone] |
| 415 |  | COc1ncc(N2CCOc3ccc(O[C@H]4CCN(C(=O)C5CCN(C)CC5)C4)cc32)cc1C#N [Example D14, 2-Methoxy-5-{6-[(S)-1-(1-methyl-piperidine-4-carbonyl)-pyrrolidin-3-yloxy]-2,3-dihydro-benzo[1,4]oxazin-4-yl}-nicotinonitrile] |
| 7090 | 29 | CCS(=O)(=O)c1ccc(N2CCOc3ccc(O[C@H]4CCN(C(=O)C5CCOCC5)C4)cc32)cn1 [Example B87, {(S)-3-[4-(6-Ethanesulfonyl-pyridin-3-yl)-3,4-dihydro-2H-benzo[1,4]oxazin-6-yloxy]-pyrrolidin-1-yl}-(tetrahydro-pyran-4-yl)-methanone] |
| 698 | 28 | COc1ncc(N2CCOc3ccc(O[C@H]4CCN(C(=O)C5=CC(=O)CC(C)(C)O5)C4)cc32)cc1C#N [Example C21, 5-{6-[(S)-1-(6,6-Dimethyl-4-oxo-5,6-dihydro-4H-pyran-2-carbonyl)-pyrrolidin-3-yloxy]-2,3-dihydro-benzo[1,4]oxazin-4-yl}-2-methoxy-nicotinonitrile] |
| 530 | 7 | COc1ncc(N2CCOc3ccc(O[C@H]4CCN(C(=O)C5CCS(=O)(=O)C5)C4)cc32)cc1F (single isomer, unassigned) [Example H12] |
| 414 | < 3 | COc1ncc(N2CCOc3ccc(O[C@H]4CCN(C(=O)C5CCC(OC)CC5)C4)cc32)cc1C#N (single isomer, unassigned) [Example D35] |
| 1770 | 30 | Cc1cc(N2CCOc3ccc(O[C@H]4CCN(C(=O)C5CCS(=O)(=O)CC5)C4)cc32)cnc1OC(F)F [Example B73, {(S)-3-[4-(6-Difluoromethoxy-5-methyl-pyridin-3-yl)-3,4-dihydro-2H-benzo[1,4]oxazin-6-yloxy]-pyrrolidin-1-yl}-(1,1-dioxo-hexahydro-6-thiopyran-4-yl)-methanone] |
| 6950 | 3220 | COc1ncc(N2CCOc3ccc(O[C@H]4CCN(C(=O)C5CCCOC5)C4)cc32)cc1C#N (stereo partly drawn) [Example C26, 2-Methoxy-5-{6-[(S)-1-(tetrahydro-pyran-3-carbonyl)-pyrrolidin-3-yloxy]-2,3-dihydro-benzo[1,4]oxazin-4-yl}-nicotinonitrile] |
| > 9100 |  | CCC(=O)N1CC[C@H](Oc2ccc3c(c2)N(c2ccnc(C#N)c2)CCO3)C1 [Example B3, 4-[6-((S)-1-Propionyl-pyrrolidin-3-yloxy)-2,3-dihydro-benzo[1,4]oxazin-4-yl]-pyridine-2-carbonitrile] |
| 5760 |  | CCC(=O)N1CC[C@H](Oc2ccc3c(c2)N(c2ccc(OC)c(S(=O)(=O)N4CCOCC4)c2)CCO3)C1 [Example A25, 1-((S)-3-{4-[4-Methoxy-3-(morpholine-4-sulfonyl)-phenyl]-3,4-dihydro-2H-benzo[1,4]oxazin-6-yloxy}-pyrrolidin-1-yl)-propan-1-one] |
| 346 |  | COc1ncc(N2CCOc3ccc(O[C@H]4CCN(C(=O)C5CCC(OC)CC5)C4)cc32)cc1C#N (single isomer, unassigned) [Example D36] |
| > 9100 |  | CCC(=O)N1CC[C@H](Oc2ccc3c(c2)N(c2ccc(OC)c(S(=O)(=O)N4CCN(C)CC4)c2)CCO3)C1 [Example A27, 1-((S)-3-{4-[4-Methoxy-3-(4-methyl-piperazine-1-sulfonyl)-phenyl]-3,4-dihydro-2H-benzo[1,4]oxazin-6-yloxy}-pyrrolidin-1-yl)-propan-1-one] |
| > 9100 |  | Cc1ncc(N2CCOc3ccc(O[C@H]4CCN(C(=O)C5CCOCC5)C4)cc32)cc1[N+](=O)[O-] [Example A4, {(S)-3-[4-(6-Methyl-5-nitro-pyridin-3-yl)-3,4-dihydro-2H-benzo[1,4]oxazin-6-yloxy]-pyrrolidin-1-yl}-(tetrahydro-pyran-4-yl)-methanone] |
| > 9100 |  | COCc1ccc(N2CCOc3ccc(O[C@H]4CCN(C(=O)C5CCOCC5)C4)cc32)cn1 [Example A20, {(S)-3-[4-(6-Methoxymethyl-pyridin-3-yl)-3,4-dihydro-2H-benzo[1,4]oxazin-6-yloxy]-pyrrolidin-1-yl}-(tetrahydro-pyran-4-yl)-methanone] |
| 8430 |  | O=C(C1CCOCC1)N1CC[C@H](Oc2ccc3c(c2)N(c2ccnc(C(F)(F)F)c2)CCO3)C1 [Example A21, (Tetrahydro-pyran-4-yl)-{(S)-3-[4-(2-trifluoromethyl-pyridin-4-yl)-3,4-dihydro-2H-benzo[1,4]oxazin-6-yloxy]-pyrrolidin-1-yl}-methanone] |
| > 9100 |  | COc1ncc(N2CCOc3ccc(O[C@H]4CCN(C(=O)c5cnon5)C4)cc32)cc1C#N [Example C7, 5-{6-[(S)-1-(Furazan-3-carbonyl)-pyrrolidin-3-yloxy]-2,3-dihydro-benzo[1,4]oxazin-4-yl}-2-methoxy-nicotinonitrile] |
| 243 |  | CN(C)c1cc(N2CCOc3ccc(O[C@H]4CCN(C(=O)C5CCOCC5)C4)cc32)cnc1S(C)(=O)=O [Example B78, {(S)-3-[4-(5-Dimethylamino-6-methanesulfonyl-pyridin-3-yl)-3,4-dihydro-2H-benzo[1,4]oxazin-6-yloxy]-pyrrolidin-1-yl}-(tetrahydro-pyran-4-yl)-methanone] |
| 236 |  | COc1ncc(N2CCOc3ccc(O[C@H]4CCN(C(=O)C5CCOCC5)C4)cc32)cc1C#N [Example D4, 2-Methoxy-5-{6-[(S)-1-(tetrahydro-pyran-4-carbonyl)-pyrrolidin-3-yloxy]-2,3-dihydro-benzo[1,4]oxazin-4-yl}-nicotinonitrile] |
| 234 |  | COc1ncc(N2CCOc3ccc(O[C@H]4CCN(C(=O)CN5CCOCC5)C4)cc32)cc1C#N [Example D7, 2-Methoxy-5-{6-[(S)-1-(2-morpholin-4-yl-acetyl)-pyrrolidin-3-yloxy]-2,3-dihydro-benzo[1,4]oxazin-4-yl}-nicotinonitrile] |
| 1920 |  | COc1ncc(N2CCOc3ccc(N[C@H]4CCN(C(=O)C5CCOCC5)C4)cc32)cc1C#N [Y, 2-Methoxy-5-{6-[(S)-1-(tetrahydro-pyran-4-carbonyl)-pyrrolidin-3-ylamino]-2,3-dihydro-benzo[1,4]oxazin-4-yl}-nicotinonitrile] |
|  | 15.5 | [2H]C1([2H])COc2ccc(O[C@H]3CCN(C(=O)c4cn(C)cn4)C3)cc2N1c1cnc(OC)c(C#N)c1 [Example B30, 2-Methoxy-5-{6-[(S)-1-(1-methyl-1H-imidazole-4-carbonyl)-pyrrolidin-3-yloxy]-3,3-dideutero-2,3-dihydro-benzo[1,4]oxazin-4-yl}-nicotinonitrile] |
